For this assay, the target named is T1, LTD4 /E4 receptors (Cavia porcellus, UniProt Q2NNR5).
T1 construct: membrane fractions, containing the LTD4 /E4 receptors, are prepared from guinea-pig lung parenchyma; from tissue; host or cells: guinea-pig lung parenchyma membrane fractions
T1 sequence (Q2NNR5 1-340): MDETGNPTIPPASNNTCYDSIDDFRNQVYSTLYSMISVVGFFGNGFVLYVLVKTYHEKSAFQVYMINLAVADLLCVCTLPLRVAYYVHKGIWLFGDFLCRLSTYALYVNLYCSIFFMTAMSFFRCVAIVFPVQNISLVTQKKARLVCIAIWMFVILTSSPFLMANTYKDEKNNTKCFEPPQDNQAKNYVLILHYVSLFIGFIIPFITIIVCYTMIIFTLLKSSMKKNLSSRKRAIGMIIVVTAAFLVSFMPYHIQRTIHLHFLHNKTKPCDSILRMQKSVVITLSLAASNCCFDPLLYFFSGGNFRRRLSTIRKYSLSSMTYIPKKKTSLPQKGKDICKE
As to the kind of experiment: receptor-ligand binding assay with 3H-LTD4 on guinea-pig lung parenchyma membrane fractions. The settings on record: 1nM 3H-LTD4, 30 minutes at 22° C., Ki calculated from IC50 by the Cheng-Prusoff equation. Here is the method:
According to this procedure, membrane fractions, containing the LTD4 /E4 receptors, are prepared from guinea-pig lung parenchyma and incubated for 30 minutes at 22° C. with 1nM ^3 H-LTD4 in the absence or presence of tested antagonist. Specific binding, determined under conditions that prevent enzymatic metabolism of ^3 H-LTD4, is the net result of total ^3 H-LTD4 binding minus nonspecific binding determined in the presence of 1-2000 fold excess unlabelled LTD^4. Each assay is done in duplicate and results (Ki values) are typically a mean of several such determinations in individual receptor batches.
The % inhibition by a tested antagonist, relative to control binding (vehicle alone), is expressed as a fraction of log[antagonist] concentration (in molar units) and the half-maximal inhibition (IC50) determined by computerized non-linear least-square analysis. The binding constant (Ki) is then calculated from IC50 by the Cheng-Prusoff equation: [formula] where [L] is ^3 H-LTD4 concentraton and Kd is the affinity constant of LTD4 to this receptor, determined separately for each batch. (Biochem. Pharmacol. 22: 3099-3108, 1973).

Structures are written as SMILES.

For orientation: Ki means the dissociation constant of the complex between target and ligand, obtained from inhibition or displacement. For the compound `CCCN1CCC(Cc2ccc3c(c2)c(Cc2ccc(C(=O)NS(=O)(=O)c4ccccc4C)cc2OC)cn3CCC)C1=O` (stereo not shown) [Example 1, 3-Methoxy-N-(2-methylphenylsulfonyl)-4-[1-propyl-5-(1-propyl-2-oxopyrrolidin-3-ylmethyl)indol-3-ylmethyl]benzamide], the Ki was 1 nM.

These data come from patent US5047402A, “Cyclic amides as medicaments” (ICI Americas Inc., priority 1989, dated 1991).
